Test results from patent publication US20090036389A1, “Polymeric Micelle Formulations of Hydrophobic Compounds and Methods” (priority 2002, published 2009).

How the values were obtained:
[1] = Drug loading of PEG-b-PCL (5000:4000) micelles, cosolvent evaporation versus dialysis; format: physicochemical

Description for bovine erythrocytes: EDTA-anticoagulated bovine blood was diluted in PBS, pH=7.2. The erythrocytes were separated by centrifugation for 10 min at 3000 rpm. The supernatant was removed and discarded. The packed cell volume (PCV) was washed three more times with PBS. The PCV was diluted appropriately in PBS to obtain suspensions of 8×10^7 and 1.48×10^8 cells/mL. Cell counts were preformed using an Improved Neubauer Brightline hemacytometer (depth=0.1 mm) from Hausser Scientific (Horsham, Pa.). The AmB/polymer formulations and polymer blanks were brought to room temperature and reconstituted with 1.0 mL of PBS just prior to use. 1.85 mL of the 8×10^7 cells/mL suspension was incubated at 37° C. in a shaking water bath (75 rpm) with 150 μL of AmB/polymer formulation, polymer blank containing no AmB, or PBS buffer (control) for 24 h. […] The supernatant was collected, and hemoglobin content was determined by absorbance at 542 nm. […] Percent hemolysis is reported by 100(Abss-Absb)/(Abs1-Absb) where Abss is the absorbance of the sample, Absb is the average absorbance of the buffer, and Abss is the average absorbance of the lysed samples. […]
An 8 mg/mL AmB in DMSO stock solution was prepared. […] The samples were collected over time, and percent hemolysis was determined as described above.

Row | Structure (SMILES) | % Yield of Drug ([1]; Cosolvent Evaporation) [%] | % Yield of Drug ([1]; Dialysis) [%] | time-dependent hemolytic profile / onset of hemolysis (bovine erythrocytes) | Final Drug/Polymer Mole Ratio ([1]; Cosolvent Evaporation) | Final Drug/Polymer Mole Ratio ([1]; Dialysis)
1 | CC(C)OC(=O)C(C)(C)Oc1ccc(C(=O)c2ccc(Cl)cc2)cc1 [Fenofibrate, 2-[4-(4-chlorobenzoyl)phenoxy]-2-methylpropanoic acid 1-methylethyl ester] | 88 | 31 | – | – | –
2 | C[C@@H]1[C@H](O)[C@@H](C)/C=C/C=C/C=C/C=C/C=C/C=C/C=C/[C@H](O[C@@H]2O[C@H](C)[C@@H](O)[C@H](N)[C@@H]2O)C[C@@H]2O[C@](O)(C[C@@H](O)C[C@@H](O)[C@H](O)CC[C@@H](O)C[C@@H](O)CC(=O)O[C@H]1C)C[C@H](O)[C@H]2C(=O)O [Free AmB, amphotericin B] | 48 | 25 | immediate hemolysis | 0.11 | 0.055
